Data reported in PMC10809103, “Phosphatidylthreonine is a procoagulant lipid detected in human blood and elevated in coronary artery disease” (Journal of lipid research, 2023).

What was measured:
[1] = target: T1, Prothrombin (FII) (Homo sapiens, UniProt P00734); assay: surface plasmon resonance, lipid in nanodiscs, steady state; type: binding; settings: read-out: Kd (μM) / 40% PS 60% PC
T1 construct: gene F2; zymogen prothrombin; source and preparation only in supplement
Source text: surface plasmon resonance, lipid in nanodiscs, steady state on Prothrombin (FII)

[2] = target: T2, Factor X (FX) (Homo sapiens, UniProt P00742); assay: as above; type: binding; settings: read-out: Kd (μM) / 40% PS 60% PC
T2 construct: gene F10; zymogen factor X, two-chain; source and preparation only in supplement; with Coagulation factor X (factor X heavy chain)
T2 sequence (P00742 41-179): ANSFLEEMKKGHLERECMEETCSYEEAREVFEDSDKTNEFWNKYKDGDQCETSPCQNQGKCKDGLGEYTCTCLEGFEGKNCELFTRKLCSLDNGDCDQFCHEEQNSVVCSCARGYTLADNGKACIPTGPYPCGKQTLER
T2 sequence (P00742 183-488): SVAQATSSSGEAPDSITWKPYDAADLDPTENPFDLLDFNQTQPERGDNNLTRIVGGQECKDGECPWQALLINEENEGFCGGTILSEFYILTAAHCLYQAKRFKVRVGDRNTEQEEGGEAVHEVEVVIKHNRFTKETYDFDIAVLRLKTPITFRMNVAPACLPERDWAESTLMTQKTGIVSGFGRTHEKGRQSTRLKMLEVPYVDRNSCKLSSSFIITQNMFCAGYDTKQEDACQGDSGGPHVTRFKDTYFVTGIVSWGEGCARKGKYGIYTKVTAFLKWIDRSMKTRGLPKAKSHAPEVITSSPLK
Source text: surface plasmon resonance, lipid in nanodiscs, steady state on Factor X (FX)

Kd [1]: 6.23 ± 0.921 µM | Kd [2]: 1.33 ± 0.191 µM
Structure (SMILES): CCCCCCCC/C=C\CCCCCCCC(=O)O[C@H](COC(=O)CCCCCCCCCCCCCCC)COP(=O)(O)OC[C@H](N)C(=O)O [PS 16:0/18:1(9Z)]
